Experiment [1] relates to K48-linked ubiquitin. Put plainly: K48-linked ubiquitin immunoblot in BaF3/p210 cells. The format is cell-based, murine. The conditions noted are these: 4 h, various concentrations. The procedure: Panel A is an image of an immunoblot showing BaF3/p210 cells were treated with various concentrations of TU46 for 4 h, and then whole cell lysates were blotted for K48-linked ubiquitin and tubulin. Panel B is an immunoblot showing same lysates as in Panel A were blotted for Bcr-Abl.
The K48-linked ubiquitin levels were also probed in these lysates. […] The increase in K48-linked ubiquitin coincided with the loss of Bcr-Abl (FIG. 8, Panel B). Since USP9x is known to deubiquitinate K48-linked polyubiquitin chains, it is possible that this increase in K48-linked ubiquitin is due to USP9x inhibition. See Park et al., PNAS 110, 9433-9438 (2013).
A general note: Immunoblotting shows a protein as a band on a membrane.

Experiment [2] has as its system leukemic cell lines. Put plainly: NCI-60 human tumor cell line screen. Format: cell-based. To be noted: 48 h treatment. From the text: For example, a value of 100 means no growth inhibition and a value of 40 indicates 60% growth inhibition. A value of ‘0’ indicates complete growth inhibition.

Take `CC(C)(C)OC(=O)NCCc1ccc(N=C=S)cc1` [TU46]: the K48-linked ubiquitin level result in experiment [1] is reported as “increases K48-linked ubiquitin”. On to `CC(C)(C)OC(=O)NCc1cccc(N=C=S)c1` [TU50], for which, in experiment [2], the “lethality in NCI-60 screen” value is on record as “selective lethality against leukemic cell lines”.

The record behind these values is patent US10017463B2, “Inhibitors of deubiquitinating proteases” (Brandeis University, priority 2014, dated 2018).
